Laboratory results reported in patent US20140294856A1, “COMBINATION TREATMENT COMPRISING A HDAC6 INHIBITOR AND AN AKT INHIBITOR” (priority 2011, published 2014).

Key:
HDAC-8 = HDAC-8 (Homo sapiens, UniProt Q9BY41); experiment: Enzyme inhibition activity, Fluor-de-Lys kit; format: biochemical
Text: HDAC-C1A is a particularly preferred HDAC6 inhibitor of the invention. […] HDAC-C1A is approximately 7-fold more specific for HDAC6 than for HDAC-8 and approximately 17-fold more specific for HDAC6 when compared with HDAC1 (see Table 1). […] As brain permeability remains a major limitation for drug treatment of CNS disorders, HDAC-C1A, or compounds derived from HDAC-C1A, appear to be very promising drug candidates.
FIG. 20 (Table 1): Enzyme inhibition activity using HeLa nuclear extract and the Fluor-de-Lys kit.

RAD51 = RAD51 mRNA and protein expression; format: cell-based; conditions: in vitro and in vivo
MCF7 = experiment: Phospho-AKT levels by western blotting; format: cell-based; conditions: breast cancer cell line MCF7
HCT116 xenograft = experiment: Differential gene expression, affymetrix human genome array; format: in vivo, mice
IGROV-1 = experiment: Phospho-AKT levels by western blotting; format: cell-based; conditions: ovarian cancer cell line IGROV-1
[1] = Stability in PBS at acidic pH, HPLC-UV; format: physicochemical; conditions: down to pH 2, cell free, 10 μM in PBS, 1 hour, 37° C.
Protocol: FIG. 3. Impact of the pH on the stability of HDAC-C1A. HDAC-C1A was incubated at 10 μM in PBS for 1 hour at 37° C. and the concentration was evaluated using HPLC-UV. The pH of PBS was adjusted using HCL.
The drug was stable after oral, parenteral and intravenous administration for 24 h (last time point examined). […] The Cma and AUC0-24h following i.p. injection (20 mg/kg) were 3.2 μg/mL and 11.2 μg/mL*h, respectively. […] The acid instability of HDAC-C1A could therefore be improved by enteric coating as a means to avoid breakdown in the stomach. […] HDAC-C1A was also tested in HCT116 human colon cancer xenograft model using a refined dose and scheduling. […] This dose was non-toxic (no reduction in body weight) (FIG. 5.D). The acetylated form of α-tubulin (biomarker of response to HDAC6 inhibition) could be observed after 14 days of treatment and could be detected as early as 6 hours after the 1st injection (FIG. 5.E.). The acetylated form of Histone 3 (biomarker of response of class I histones) could be observed as early as 2 hours after the 1st injection and remain after 14 days of treatment (FIG. 5.E).

HCT116 cells = experiment: Acetylated PTEN and PTEN expression; format: cell-based, human
Protocol: FIG. 12. HDAC-C1A treatment is associated with an increase of phopsho-AKT that can be reversed by PI3K/AKT/mTOR inhibitors. […] Similarly, Phospho-Pras 40 seems to increase following treatment with HDAC-C1A. Densitometry data could reinforce this statement (ratio between the total form and the Phospho form of Pras40 that decreases at 24 hours). […] No difference could be seen in endometrial cancer cell line, […]. C. […] E. BEZ-235 can fully reverse the increase of Phospho-AKT mediated by HDAC-C1A in HCT-116 cells. BEZ-235 and HDAC-C1A were co-incubated at the indicated time and concentrations.
FIG. 17. A. Dose and time impact of Tubastatin A on acetylated form of tubulin and histones H3 and H4 and on phospho-AKT levels that could be reversed with BEZ-235 in HCT-116 cells. […] HCT116 were immunoprecipitation with PTEN and stained with HDAC1 or HDAC6, immunoprecipitation with HDAC6 and stained with PTEN. No HDAC1 could have been detected in contrast with HDAC6. There was no effect of the different inhibitors on the different protein levels.
PTEN protein expression was not altered. In vivo, on the gene array, the mRNA levels of PTEN were not altered in HCT116 xenograft model following treatment with HDAC-C1A after 1 and 14 days when compared with vehicle treated group (FIG. 7).
We have shown that HDAC-C1A is associated with increased acetylation of α-tubulin, acetyl HSP90 and acetyl PTEN with only a minor effect on the regulation of the genes (less than 0.7% of the genes have been de-regulated after 14 days of treatment in vivo). We believe that the acetylation of PTEN, via the inhibition of HDAC6, leads to an increase of P-AKT. […] No effect of BEZ235 could be seen on the acetylated status of α-tubulin and histones H3 and H4.

[2] = 14 days, 40 mg/kg every other day

Chain of HDAC-8 (Q9BY41 whole entry): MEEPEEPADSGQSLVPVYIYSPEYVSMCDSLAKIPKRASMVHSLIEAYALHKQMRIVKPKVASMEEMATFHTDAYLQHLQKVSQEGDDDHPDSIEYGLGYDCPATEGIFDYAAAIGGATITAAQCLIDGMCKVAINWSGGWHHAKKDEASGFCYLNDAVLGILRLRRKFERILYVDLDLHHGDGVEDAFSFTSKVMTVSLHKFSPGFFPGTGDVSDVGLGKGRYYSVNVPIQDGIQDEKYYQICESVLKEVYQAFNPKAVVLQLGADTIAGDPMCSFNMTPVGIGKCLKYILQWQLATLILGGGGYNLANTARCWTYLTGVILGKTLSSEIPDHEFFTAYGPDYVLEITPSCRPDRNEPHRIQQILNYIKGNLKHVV

CC(/C=C/C(=O)NO)=C\c1ccc(NS(=O)(=O)c2ccc(N(CCCl)CCCl)cc2)cc1 [HDAC-C1A]
fold more specific for HDAC6 than for HDAC-8 (HDAC-8): approximately 7 fold | RAD51 mRNA and protein expression (RAD51): did not increase | P-AKT levels (MCF7): increased | number of genes deregulated (of 20 000 tested) (HCT116 xenograft; 24 hours, 40 mg/kg): 20 genes | number of genes up-regulated (HCT116 xenograft; 24 hours, 40 mg/kg): 17 | ALDH1 up-regulation (HCT116 xenograft; 14 days of treatment): ~1.6 fold | Gasdermin D up-regulation (HCT116 xenograft; 14 days of treatment): ~1.5 fold | K AZ up-regulation (HCT116 xenograft; 14 days of treatment): ~1.5 fold | KLK3 down-regulation (HCT116 xenograft; 14 days of treatment): ~1.5 fold | RAD23B up-regulation (HCT116 xenograft; 14 days of treatment): ~1.8 fold | SYNDECAN-2 down-regulation (HCT116 xenograft; 14 days of treatment): ~1.7 fold | UNG up-regulation (HCT116 xenograft; 14 days of treatment): ~1.7 fold | number of genes deregulated by at least 1.5 fold (HCT116 xenograft; [2]): 132 genes | share of genes deregulated (HCT116 xenograft; [2]): < 0.7% | mRNA levels of PTEN vs vehicle (HCT116 xenograft; after 1 and 14 days): not altered | P-AKT levels (IGROV-1): increased | stability across acidic pH [1]: relative acidic degradation | PTEN protein expression (HCT116 cells): not altered | acetyl form of PTEN (HCT116 cells; 4 h and 24 h, 1 μM and 10 μM): dose and time dependent increase
